Laboratory results from BigSolDB 2.1.

CC(=O)N[C@@H](CC(C)C)C(=O)O
solubility (mole fraction)
Settings	283.15 K	288.15 K	293.15 K	298.15 K	303.15 K	308.15 K	313.15 K	318.15 K	323.15 K
in acetone	0.00363	0.00434	0.00525	0.0062	0.00734	0.00886	0.0106	0.0124	0.0146
in acetonitrile	0.000712	0.000811	0.00114	0.00141	0.00163	0.00198	0.00249	0.00295	0.00335
in ethanol	0.0243	0.0278	0.0314	0.0353	0.0396	0.0456	0.0504	0.0567	0.0624
in ethyl acetate	0.00103	0.00127	0.0015	0.00178	0.00207	0.00243	0.0028	0.00328	0.00374
in isobutanol	0.0148	0.0176	0.0206	0.0242	0.0283	0.0328	0.0375	0.0425	0.0478
in isopropanol	0.0177	0.0206	0.0238	0.0274	0.0313	0.0354	0.0405	0.0464	0.0526
in methanol	0.0309	0.0357	0.0403	0.0456	0.0514	0.0589	0.066	0.0729	0.0824
in methyl acetate	0.00106	0.00134	0.00159	0.00191	0.00223	0.00259	0.0033	0.00396	0.00453
in n-butanol	0.017	0.0192	0.0221	0.0255	0.0291	0.0331	0.0379	0.0429	0.0489
in n-propanol	0.0196	0.0223	0.0251	0.0286	0.0329	0.0376	0.0424	0.0478	0.0541
in n-propyl acetate	0.00087	0.00107	0.00126	0.00149	0.00177	0.00211	0.00249	0.003	0.00357
in sec-butanol	0.0177	0.0207	0.0241	0.0279	0.0325	0.037	0.042	0.0473	0.0541
